Where two headings read alike, the source gives them in different places.
Biological target: T1, human GluN1/GluN2B NMDA receptors (Homo sapiens, UniProt Q05586+Q13224)
T1 construct: expressed in transfected cells
Assay: Cell-based calcium flux (FLIPR) assay on cloned human NR1/NR2B ion channels expressed in mammalian cells (standard and HTS buffer variants);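 also: stable Tet-On inducible cell line, Ca2+ influx triggered by glutamate at about EC40 plus 10 µM glycine, fluorescent dye read-out over 5 min, normalized to control wells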

[1] = standard assay buffer (0.5 mM MgCl2 dye loading; 137 mM NaCl, 4 mM KCl assay buffer), human GluN1/GluN2B cells, read-out: NR2B IC50 (μM) standard assay
[2] = standard assay buffer (0.5 mM MgCl2 in dye loading buffer; 137 mM NaCl, 4 mM KCl in assay buffer), human GluN1/GluN2B, read-out: NR2B IC50 (μM) standard assay

T1 sequence (Q13224 27-1484, other chains not shown): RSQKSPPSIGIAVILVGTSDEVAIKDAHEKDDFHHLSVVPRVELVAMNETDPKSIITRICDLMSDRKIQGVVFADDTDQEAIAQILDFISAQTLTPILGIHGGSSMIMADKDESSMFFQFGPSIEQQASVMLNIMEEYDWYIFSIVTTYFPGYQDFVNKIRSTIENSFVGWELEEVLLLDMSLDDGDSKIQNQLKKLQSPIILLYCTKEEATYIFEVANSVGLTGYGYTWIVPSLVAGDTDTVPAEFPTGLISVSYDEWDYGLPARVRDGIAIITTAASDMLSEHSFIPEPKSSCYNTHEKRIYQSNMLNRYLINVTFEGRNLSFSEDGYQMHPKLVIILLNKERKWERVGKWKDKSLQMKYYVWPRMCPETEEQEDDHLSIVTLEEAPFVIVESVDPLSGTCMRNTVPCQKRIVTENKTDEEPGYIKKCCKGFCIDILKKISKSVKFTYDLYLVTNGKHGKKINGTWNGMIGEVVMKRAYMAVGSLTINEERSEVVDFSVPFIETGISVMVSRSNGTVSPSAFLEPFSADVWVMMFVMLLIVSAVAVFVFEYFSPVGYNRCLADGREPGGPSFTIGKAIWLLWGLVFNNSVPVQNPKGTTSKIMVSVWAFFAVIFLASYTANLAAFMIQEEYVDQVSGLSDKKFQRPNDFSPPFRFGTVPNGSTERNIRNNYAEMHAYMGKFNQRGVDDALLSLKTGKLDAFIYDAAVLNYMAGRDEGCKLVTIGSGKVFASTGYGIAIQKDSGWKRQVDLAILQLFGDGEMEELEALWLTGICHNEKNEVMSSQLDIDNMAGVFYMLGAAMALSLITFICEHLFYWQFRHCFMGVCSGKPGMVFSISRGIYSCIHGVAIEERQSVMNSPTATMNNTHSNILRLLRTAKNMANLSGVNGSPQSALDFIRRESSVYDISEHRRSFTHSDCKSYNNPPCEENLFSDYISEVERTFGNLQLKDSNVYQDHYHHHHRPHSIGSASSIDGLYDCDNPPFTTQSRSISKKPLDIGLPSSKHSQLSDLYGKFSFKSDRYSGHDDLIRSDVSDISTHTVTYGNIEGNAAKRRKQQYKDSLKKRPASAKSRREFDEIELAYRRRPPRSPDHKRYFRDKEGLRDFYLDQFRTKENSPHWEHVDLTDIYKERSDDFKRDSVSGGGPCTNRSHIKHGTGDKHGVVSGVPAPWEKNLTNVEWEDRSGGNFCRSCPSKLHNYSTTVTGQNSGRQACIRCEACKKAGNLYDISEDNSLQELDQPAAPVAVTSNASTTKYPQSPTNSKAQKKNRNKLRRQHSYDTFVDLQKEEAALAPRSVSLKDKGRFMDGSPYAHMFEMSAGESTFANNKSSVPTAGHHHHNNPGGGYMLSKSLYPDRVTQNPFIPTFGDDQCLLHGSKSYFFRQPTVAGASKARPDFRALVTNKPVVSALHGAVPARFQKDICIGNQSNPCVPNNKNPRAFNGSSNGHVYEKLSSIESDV

| Compound | IC50 [1] [µM] | IC50 [2] [µM] | also measured |
| --- | --- | --- | --- |
| O=c1[nH]c2ncc(-c3ccccc3)cc2n1CC1CCN1 (racemic) [Example 265, (R/S)-1-(Azetidin-2-ylmethyl)-6-phenyl-3H-imidazo[4,5-b]pyridin-2-one] | 0.397 | – | – |
| COc1ccc(-c2cnc3[nH]c(=O)n(CC(=O)C(C)(C)C)c3c2)cc1C [Example 603, 1-(3,3-Dimethyl-2-oxo-butyl)-6-(4-methoxy-3-methyl-phenyl)-3H-imidazo[4,5-b]pyridin-2-one] | – | 1.29 | – |
| CCC(O)Cn1c(=O)[nH]c2ncc(-c3ccc(F)c(C)c3F)cc21 (racemic) [Example 336, (R/S)-6-(2,4-Difluoro-3-methyl-phenyl)-1-(2-hydroxybutyl)-3H-imidazo[4,5-b]pyridin-2-one] | – | 0.015 | – |
| [2H]C([2H])([2H])OCc1ccc(-c2cnc3c(c2)n(CC(=O)N2CC(F)C2)c(=O)n3C)s1 [Example 123, 1-[2-(3-Fluoroazetidin-1-yl)-2-oxo-ethyl]-3-methyl-6-[5-(trideuteriomethoxymethyl)-2-thienyl]imidazo[4,5-b]pyridin-2-one] | 1.82 | – | – |
| CCC(O)Cn1c(=O)[nH]c2ncc(-c3ccc(F)cc3C)cc21 (single isomer, unassigned) [Example 43, (R*)-6-(4-Fluoro-2-methyl-phenyl)-1-(2-hydroxybutyl)-3H-imidazo[4,5-b]pyridin-2-one] | – | – | IC50 (HTS assay buffer (1.5 mM MgCl2 dye loading; 150 mM NaCl, 3 mM KCl assay buffer), human GluN1/GluN2B cells, read-out: NR2B IC50 (μM) HTS assay): 3.49 µM |
| CCC(O)Cn1c(=O)[nH]c2ncc(-c3cccc(C)c3)cc21 (racemic) [Example 335, (R/S)-1-(2-Hydroxybutyl)-6-(m-tolyl)-3H-imidazo[4,5-b]pyridin-2-one] | – | 0.054 | – |
| COCCC(O)Cn1c(=O)n(C)c2ncc(-c3ccc(F)c(C)c3)cc21 (racemic) [Example 393, (R/S)-6-(4-Fluoro-3-methyl-phenyl)-1-(2-hydroxy-4-methoxy-butyl)-3-methyl-imidazo[4,5-b]pyridin-2-one] | – | 0.486 | – |
| [2H]C([2H])([2H])OCc1ccc(-c2cnc3c(c2)n(CC(=O)N(C)C)c(=O)n3C)s1 [Example 121, N,N-Dimethyl-2-[3-methyl-2-oxo-6-[5-(trideuteriomethoxymethyl)-2-thienyl]imidazo[4,5-b]pyridin-1-yl]acetamide] | 2.96 | – | – |
| Cc1c(-c2cnc3c(c2)n(CC(O)CCO)c(=O)n3C)cccc1C(F)(F)F (racemic) [Example 399, (R/S)-1-(2,4-Dihydroxybutyl)-3-methyl-6-[2-methyl-3-(trifluoromethyl)phenyl]imidazo[4,5-b]pyridin-2-one] | – | 5.1 | – |
| O=c1[nH]c2ncc(-c3ccc(F)cc3)cc2n1CC1CCN1 (racemic) [Example 266, (R/S)-1-(Azetidin-2-ylmethyl)-6-(4-fluorophenyl)-3H-imidazo[4,5-b]pyridin-2-one] | 0.173 | – | – |
| CCC(O)Cn1c(=O)[nH]c2ncc(-c3ccc(OC)cc3)cc21 (single isomer, unassigned) [Example 4, (S*)-1-(2-Hydroxybutyl)-6-(4-methoxyphenyl)-3H-imidazo[4,5-b]pyridin-2-one] | 0.32 | – | – |
| CCC(O)Cn1c(=O)[nH]c2ncc(-c3ccc(F)c(C)c3)cc21 (racemic) [Example 334, (R/S)-6-(4-Fluoro-3-methyl-phenyl)-1-(2-hydroxybutyl)-3H-imidazo[4,5-b]pyridin-2-one] | – | 0.031 | – |
| COc1ccc(-c2cnc3[nH]c(=O)n(CC(C)C)c3c2)cc1 [Example 604, 1-Isobutyl-6-(4-methoxyphenyl)-3H-imidazo[4,5-b]pyridin-2-one] | – | 1.82 | – |
| O=c1[nH]c2ncc(-c3cccc(Cl)c3Cl)cc2n1CC1CCN1 (racemic) [Example 268, (R/S)-1-(Azetidin-2-ylmethyl)-6-(2,3-dichlorophenyl)-3H-imidazo[4,5-b]pyridin-2-one] | 0.041 | – | – |
| COc1ccc(-c2cnc3[nH]c(=O)n(Cc4ccccc4C#N)c3c2)cc1C [Example 608, 2-[[6-(4-Methoxy-3-methyl-phenyl)-2-oxo-3H-imidazo[4,5-b]pyridin-1-yl]methyl]benzonitrile] | – | 1.02 | – |
| [2H]C([2H])([2H])OCc1ccc(-c2cnc3c(c2)n(CC(=O)N2CCC2)c(=O)n3C)s1 [Example 122, 1-[2-(Azetidin-1-yl)-2-oxo-ethyl]-3-methyl-6-[5-(trideuteriomethoxymethyl)-2-thienyl]imidazo[4,5-b]pyridin-2-one] | 1.22 | – | – |
| O=c1[nH]c2ncc(-c3cccc(C(F)(F)F)c3F)cc2n1CC1CCN1 (racemic) [Example 264, (R/S)-1-(Azetidin-2-ylmethyl)-6-[2-fluoro-3-(trifluoromethyl)phenyl]-3H-imidazo[4,5-b]pyridin-2-one] | 0.044 | – | – |
| [2H]c1c(-c2ccc(C(F)(F)F)s2)cnc2c1n(CC(=O)N1CCC1)c(=O)n2C [Example 120, 1-(2-(Azetidin-1-yl)-2-oxoethyl)-3-methyl-6-(5-(trifluoromethyl)thiophen-2-yl)-1,3-dihydro-2H-imidazo[4,5-b]pyridin-2-one-7-D] | 0.01 | – | – |
| CC(C(=O)N1CCC1)n1c(=O)[nH]c2ncc(-c3cccc(C(F)(F)F)c3)cc21 (racemic) [Example 203, (R/S)-1-[2-(Azetidin-1-yl)-1-methyl-2-oxo-ethyl]-6-[3-(trifluoromethyl)phenyl]-3H-imidazo[4,5-1D]pyridin-2-one] | 1.1 | – | – |

The next lines start with results.

| IC50 [1] [µM] | IC50 [2] [µM] | Compound | also measured |
| --- | --- | --- | --- |
| 0.211 | – | Cn1c(=O)n(CC2CCO2)c2cc(-c3cccc(C(F)(F)F)c3)cnc21 (racemic) [Example 133, (R/S)-3-methyl-1-(oxetan-2-ylmethyl)-6-[3-(trifluoromethyl)phenyl]imidazo[4,5-b]pyridin-2-one] | – |
| 1.23 | – | Cc1cc(F)ccc1-c1cnc2c(c1)n(CC1CCO1)c(=O)n2C (racemic) [Example 33, (R/S)-6-(4-Fluoro-2-methyl-phenyl)-3-methyl-1-(oxetan-2-ylmethyl)imidazo[4,5-b]pyridin-2-one] | – |
| – | 0.228 | Cn1c(=O)n(CC2CCO2)c2cc(-c3cccc(Cl)c3)cnc21 (racemic) [Example 397, (R/S)-6-(3-Chlorophenyl)-3-methyl-1-(oxetan-2-ylmethyl)imidazo[4,5-b]pyridin-2-one] | – |
| 6.49 | – | O=c1[nH]c2ncc(-c3cccc(C(F)(F)F)c3)cc2n1CC1CNCCO1 (racemic) [Example 217, (R/S)-1-(Morpholin-2-ylmethyl)-6-[3-(trifluoromethyl)phenyl]-3H-imidazo[4,5-b]pyridin-2-one] | – |
| – | 0.119 | CCC(O)Cn1c(=O)[nH]c2ncc(-c3cccc(C(F)(F)F)c3)cc21 (racemic) [Example 337, (R/S)-1-(2-Hydroxybutyl)-6-[3-(trifluoromethyl)phenyl]-3H-imidazo[4,5-b]pyridin-2-one] | – |
| 0.063 | – | O=c1[nH]c2ncc(-c3cccc(C(F)(F)F)c3)cc2n1CC1CCN1 (racemic) [Example 263, (R/S)-1-(Azetidin-2-ylmethyl)-6-[3-(trifluoromethyl)phenyl]-3H-imidazo[4,5-b]pyridin-2-one] | – |
| 0.151 | – | O=c1[nH]c2ncc(-c3cccc(C(F)(F)F)c3)cc2n1CC(O)C1CC1 (racemic) [Example 31, (R/S)-1-(2-Cyclopropyl-2-hydroxy-ethyl)-6-[3-(trifluoromethyl)phenyl]-3H-imidazo[4,5-b]pyridin-2-one] | – |
| 0.409 | – | Cn1c(=O)n(CC2CCN2)c2cc(-c3cccc(C(F)(F)F)c3)cnc21 (racemic) [Example 245, (R/S)-1-(Azetidin-2-ylmethyl)-3-methyl-6-[3-(trifluoromethyl)phenyl]imidazo[4,5-b]pyridin-2-one] | – |
| – | 0.128 | Cn1c(=O)n(CC2CCO2)c2cc(-c3cccc(C(F)F)c3)cnc21 (racemic) [Example 394, (R/S)-6-[3-(Difluoromethyl)phenyl]-3-methyl-1-(oxetan-2-ylmethyl)imidazo [4,5-b]pyridin-2-one] | – |
| – | 2.84 | Cc1c(-c2cnc3c(c2)n(CC2CCO2)c(=O)n3C)cccc1C(F)(F)F (racemic) [Example 398, (R/S)-3-Methyl-6-[2-methyl-3-(trifluoromethyl)phenyl]-1-(oxetan-2-ylmethyl)imidazo[4,5-b]pyridin-2-one] | – |
| 0.552 | – | O=c1[nH]c2ncc(-c3cccc(C(F)(F)F)c3)cc2n1CC1CCCCO1 (racemic) [Example 218, (R/S)-1-(Tetrahydropyran-2-ylmethyl)-6-[3-(trifluoromethyl)phenyl]-3H-imidazo[4,5-b]pyridin-2-one] | – |
| 0.036 | – | O=c1[nH]c2ncc(-c3cccc(C(F)(F)F)c3)cc2n1CC1CCO1 (single isomer, unassigned) [Example 223, (R*)-1-(Oxetan-2-ylmethyl)-6-[3-(trifluoromethyl)phenyl]-3H-imidazo[4,5-b]pyridin-2-one] | – |
| 0.4 | – | O=c1[nH]c2ncc(-c3cccc(C(F)(F)F)c3)cc2n1CC1CC1(F)F (racemic) [Example 225, (R/S)-1-[(2,2-Difluorocyclopropyl)methyl]-6-[3-(trifluoromethyl)phenyl]-3H-imidazo[4,5-b]pyridin-2-one] | – |
| 0.054 | – | O=c1[nH]c2ncc(-c3cccc(C(F)(F)F)c3)cc2n1CC1CCO1 (single isomer, unassigned) [Example 224, (S*)-1-(Oxetan-2-ylmethyl)-6-[3-(trifluoromethyl)phenyl]-3H-imidazo[4,5-b]pyridin-2-one] | – |
| – | 0.135 | Cn1c(=O)n(CC2CCO2)c2cc(-c3cccc(C(F)(F)F)c3F)cnc21 (racemic) [Example 396, (R/S)-6-[2-Fluoro-3-(trifluoromethyl)phenyl]-3-methyl-1-(oxetan-2-ylmethyl)imidazo[4,5-b]pyridin-2-one] | – |
| 0.127 | – | O=c1[nH]c2ncc(-c3cccc(C(F)(F)F)c3)cc2n1CC1CCCO1 (racemic) [Example 24, (R/S)-1-(Tetrahydrofuran-2-ylmethyl)-6-[3-(trifluoromethyl)phenyl]-3H-imidazo[4,5-b]pyridin-2-one] | – |

Source: patent publication US11759455B2, “Substituted 1H-imidazo[4,5-b]pyridin-2(3H)-ones and their use as GLUN2B receptor modulators” (JANSSEN PHARMACEUTICA NV, priority 2016, dated 2023)
